# Key:
# MMP-13 = MMP-13 ELISA on supernatants of TNF-α-treated chondrogenic pellets; format: cell-based, human; conditions: > = failed to inhibit up to highest concentration tested
# HeLa cells = assay: HeLa cell viability (CellTiter-Glo)
# Procedure, shortened: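 HeLa cells with and without drug were tested for viability by CellTiter-Glo luminescence as a toxicity read-out. In the companion NF-κB reporter assay, cells co-transfected with NF-κB firefly and Renilla luciferase plasmids (8:1) were read by Dual-Glo 5 h later, normalized to viable cells and expressed as fold over unstimulated, untreated cells.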
# MIA rat model of OA = assay: MIA trial 2 digital Randall-Selitto test (daily tacrolimus 0.3 or 0.6 mg/kg i.p., curcumin 50 mg/kg p.o., fluocinolone 0.01 mg/kg s.c.; weekly clonidine 0.1 mg/kg s.c.); format: in vivo; conditions: day 21
# Protocol: The digital Randall-Selitto (dRS) test is said to be a reliable and repeatable measure of neuropathic, bone, and inflammatory pain behavior in several different models, including those of arthritic or joint pain [29, 31, 32]. Baseline and posttreatment values were evaluated using a dRS test device (IITC Life Science, Woodland Hills, CA, USA). Animals were allowed to acclimate to the testing room before all experimentation and for a minimum of 30 minutes before testing. To ensure that their hind limbs were accessible, the animals were gently suspended in a restraint sling. The joint compression threshold was measured once at each time point for the ipsilateral and contralateral knee joints. Pressure was applied gradually over approximately 10 seconds to the medial and lateral aspects of the knee joint. Measurements were taken from the first observed behavior of vocalization, struggle, or withdrawal. A cutoff value of 600 g was used to prevent injury to the animal.
# Following isoflurane anesthesia, 50 μl (2 mg) of MIA was injected into the synovial space of the left knee. Animals were randomly assigned to groups, and pain behavior was assessed 7, 14, 21, and 28 days following MIA injection and intervention using WB with the Stoelting incapacitance meter (trial 1) or the dRS test (trials 2 and 3). […] Animals received MIA treatment and then saline control or therapeutic. […] Histopathology was performed at each time point and at study termination. All studies were conducted in accordance with the International Association for the Study of Pain Guidelines and were approved by the Algos Therapeutics, Inc. Institutional Animal Care and Use Committee (IACUC) before initiation. Those running the studies were blind to the treatments. See Additional file 1 for further details.
# MMT/MCLT rat model of OA = assay: MMT/MCLT trial 1 histopathology (same doses); format: in vivo; parameters: key to Tibial cartilage degeneration score, 3-zone total: sum of three tibial zone scores (each on 5-point scale); key to Total joint score w/o femur / Total joint score / Total joint score without femur: sum: cartilage degeneration scores + mean osteophyte score; conditions: for Bone score / Depth ratio any matrix change, mean / Depth ratio any matrix change, zone 2 / Tibial cartilage degeneration score, 3-zone total / Tibial cartilage degeneration score, zone 1 / Tibial cartilage degeneration score, zone 2 / Tibial cartilage degeneration score, zone 3 / Tibial cartilage degeneration width, significant / Tibial cartilage degeneration width, total / Tibial osteophyte measure / Tibial osteophyte score / Total joint score w/o femur: mean; for % decrease, bone score / % decrease, depth ratio mean / % decrease, depth ratio zone 2 / % decrease, femoral cartilage degeneration score / % decrease, osteophyte measure / % decrease, osteophyte score / % decrease, significant degeneration width / % decrease, tibial score 3-zone total / % decrease, tibial score zone 1 / % decrease, tibial score zone 2 / % decrease, tibial score zone 3 / % decrease, total degeneration width / % decrease, total joint score / % decrease, total joint score w/o femur: vs saline group
# Procedure, shortened: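 Rat knee joints were sectioned in 200-μm steps and stained with toluidine blue. Tibial cartilage degeneration was scored on a 5-point scale in three zones and summed with femoral scores, plus osteophyte scores, to give a total joint score. Results were averaged over three sections.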
# [1] = tacrolimus 0.6 mg/kg, fluocinolone 10 μg/kg
smiles,measurement,setting,value
C=CC[C@@H]1/C=C(\C)C[C@H](C)C[C@H](OC)[C@H]2O[C@@](O)(C(=O)C(=O)N3CCCC[C@H]3C(=O)O[C@H](/C(C)=C/[C@@H]3CC[C@@H](O)[C@H](OC)C3)[C@H](C)[C@@H](O)CC1=O)[C@H](C)C[C@@H]2OC [Tacrolimus],Concentration inhibiting MMP-13,MMP-13,50 µM
same,Non-toxic concentrations,HeLa cells,0 to 49.6 M
same,"dRS, hours after dosing with significant difference","MIA rat model of OA; tacrolimus 0.3 mg/kg, other drugs single dose",Pretrt^d
same,"dRS, hours after dosing with significant difference",MIA rat model of OA; tacrolimus 0.6 mg/kg i.p.,1 h
same,Bone score,MMT/MCLT rat model of OA; low or only dose,2.63
same,"Depth ratio any matrix change, mean",MMT/MCLT rat model of OA; low or only dose,0.26
same,"Depth ratio any matrix change, zone 2",MMT/MCLT rat model of OA; low or only dose,0.07
same,"Tibial cartilage degeneration score, 3-zone total",MMT/MCLT rat model of OA; low or only dose,4.25
same,"Tibial cartilage degeneration score, zone 1",MMT/MCLT rat model of OA; low or only dose,2.75
same,"Tibial cartilage degeneration score, zone 2",MMT/MCLT rat model of OA; low or only dose,1.50
same,"Tibial cartilage degeneration score, zone 3",MMT/MCLT rat model of OA; low or only dose,0.00
same,"Tibial cartilage degeneration width, significant",MMT/MCLT rat model of OA; low or only dose,441.67 µm
same,"Tibial cartilage degeneration width, total",MMT/MCLT rat model of OA; low or only dose,1137.50 µm
same,Tibial osteophyte measure,MMT/MCLT rat model of OA; low or only dose,370.83 µm
same,Tibial osteophyte score,MMT/MCLT rat model of OA; low or only dose,2.38
same,Total joint score w/o femur,MMT/MCLT rat model of OA; low or only dose,6.63
same,Bone score,MMT/MCLT rat model of OA; [1],3.00
same,"Depth ratio any matrix change, mean",MMT/MCLT rat model of OA; [1],0.22
same,"Depth ratio any matrix change, zone 2",MMT/MCLT rat model of OA; [1],0.02
same,"Tibial cartilage degeneration score, 3-zone total",MMT/MCLT rat model of OA; [1],3.63
same,"Tibial cartilage degeneration score, zone 1",MMT/MCLT rat model of OA; [1],2.42
same,"Tibial cartilage degeneration score, zone 2",MMT/MCLT rat model of OA; [1],1.21
same,"Tibial cartilage degeneration score, zone 3",MMT/MCLT rat model of OA; [1],0.00
same,"Tibial cartilage degeneration width, significant",MMT/MCLT rat model of OA; [1],325.00 μm
same,"Tibial cartilage degeneration width, total",MMT/MCLT rat model of OA; [1],945.83 μm
same,Tibial osteophyte measure,MMT/MCLT rat model of OA; [1],370.00 μm
same,Tibial osteophyte score,MMT/MCLT rat model of OA; [1],2.38
same,Total joint score w/o femur,MMT/MCLT rat model of OA; [1],6.00
same,"% decrease, combined width severe+marked",MMT/MCLT rat model of OA; tacrolimus 0.3 mg/kg,86%
same,"% decrease, combined width severe+marked+moderate",MMT/MCLT rat model of OA; tacrolimus 0.3 mg/kg,88%
same,"% decrease, combined width severe+marked+moderate+mild",MMT/MCLT rat model of OA; tacrolimus 0.3 mg/kg,33%
same,"% decrease, width of moderate collagen degeneration",MMT/MCLT rat model of OA; tacrolimus 0.3 mg/kg,91%
same,"% decrease, width of severe collagen degeneration",MMT/MCLT rat model of OA; tacrolimus 0.3 mg/kg,97%
same,"% increase, area of any cartilage matrix",MMT/MCLT rat model of OA; tacrolimus 0.3 mg/kg,59%
same,"% increase, area of viable cartilage matrix","MMT/MCLT rat model of OA; tacrolimus 0.3 mg/kg, fluocinolone 5 ug/kg",26%
same,"% decrease, combined width severe+marked",MMT/MCLT rat model of OA; tacrolimus 0.6 mg/kg,99%
same,"% decrease, combined width severe+marked+moderate",MMT/MCLT rat model of OA; tacrolimus 0.6 mg/kg,96%
same,"% decrease, combined width severe+marked+moderate+mild",MMT/MCLT rat model of OA; tacrolimus 0.6 mg/kg,53%
same,"% decrease, width of marked collagen degeneration",MMT/MCLT rat model of OA; tacrolimus 0.6 mg/kg,97%
same,"% decrease, width of severe collagen degeneration",MMT/MCLT rat model of OA; tacrolimus 0.6 mg/kg,100%
same,"% decrease, width of total collagen degeneration",MMT/MCLT rat model of OA; tacrolimus 0.6 mg/kg,19%
same,"% increase, area of any cartilage matrix",MMT/MCLT rat model of OA; tacrolimus 0.6 mg/kg,69%
same,"% increase, width of normal collagen",MMT/MCLT rat model of OA; tacrolimus 0.6 mg/kg,19%
same,"% increase, area of viable cartilage matrix","MMT/MCLT rat model of OA; tacrolimus 0.6 mg/kg, fluocinolone 10 ug/kg",33%
same,"% decrease, bone score",MMT/MCLT rat model of OA; low or only dose,19%
same,"% decrease, depth ratio mean",MMT/MCLT rat model of OA; low or only dose,29%
same,"% decrease, depth ratio zone 2",MMT/MCLT rat model of OA; low or only dose,59%
same,"% decrease, femoral cartilage degeneration score",MMT/MCLT rat model of OA; low or only dose,73%
same,"% decrease, osteophyte measure",MMT/MCLT rat model of OA; low or only dose,28%
same,"% decrease, osteophyte score",MMT/MCLT rat model of OA; low or only dose,39%
same,"% decrease, significant degeneration width",MMT/MCLT rat model of OA; low or only dose,39%
same,"% decrease, tibial score 3-zone total",MMT/MCLT rat model of OA; low or only dose,35%
same,"% decrease, tibial score zone 1",MMT/MCLT rat model of OA; low or only dose,36%
same,"% decrease, tibial score zone 2",MMT/MCLT rat model of OA; low or only dose,32%
same,"% decrease, tibial score zone 3",MMT/MCLT rat model of OA; low or only dose,100%
same,"% decrease, total degeneration width",MMT/MCLT rat model of OA; low or only dose,13%
same,"% decrease, total joint score",MMT/MCLT rat model of OA; low or only dose,42%
same,"% decrease, total joint score w/o femur",MMT/MCLT rat model of OA; low or only dose,37%
same,"% decrease, bone score",MMT/MCLT rat model of OA; [1],8%
same,"% decrease, depth ratio mean",MMT/MCLT rat model of OA; [1],40%
same,"% decrease, depth ratio zone 2",MMT/MCLT rat model of OA; [1],87%
same,"% decrease, femoral cartilage degeneration score",MMT/MCLT rat model of OA; [1],48%
same,"% decrease, osteophyte measure",MMT/MCLT rat model of OA; [1],28%
same,"% decrease, osteophyte score",MMT/MCLT rat model of OA; [1],39%
same,"% decrease, significant degeneration width",MMT/MCLT rat model of OA; [1],55%
same,"% decrease, tibial score 3-zone total",MMT/MCLT rat model of OA; [1],45%
same,"% decrease, tibial score zone 1",MMT/MCLT rat model of OA; [1],44%
same,"% decrease, tibial score zone 2",MMT/MCLT rat model of OA; [1],45%
same,"% decrease, tibial score zone 3",MMT/MCLT rat model of OA; [1],100%
same,"% decrease, total degeneration width",MMT/MCLT rat model of OA; [1],28%
same,"% decrease, total joint score",MMT/MCLT rat model of OA; [1],43%
same,"% decrease, total joint score w/o femur",MMT/MCLT rat model of OA; [1],43%
